Assay results from the supplement of paper PMC11061612.

How the values were obtained:
Test in all cases: combination Emax (second highest fraction inhibited in the dose matrix, 72 h); higher = more inhibition; extreme values may be limits of the assay
[1] = system: BT-474 (Breast Carcinoma)
Outline: (§1)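 Bliss excess equals the observed combination effect minus the expected value EA + EB − EA·EB, where EA and EB are the effects of each agent alone. Combination Emax is the second-highest inhibition within the matrix. Inhibition was scaled from CellTiter-Glo 2.0 luminescence, with 0 set by vehicle wells and 1 by blank wells, after 72 hours of two-drug dosing of cells plated in 1536-well plates.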

[2] = system: COR-L105 (Lung Adenocarcinoma)
Outline: as §1

DK-MG (Glioblastoma) = system: DK-MG (Glioblastoma)
Outline: as §1

[3] = system: HT-3 (Cervical Carcinoma)
Outline: as §1

[4] = system: JURL-MK1 (Chronic Myelogenous Leukemia)
Outline: as §1

[5] = system: MDA-MB-175-VII (Breast Carcinoma)
Outline: as §1

MG-63 (Osteosarcoma) = system: MG-63 (Osteosarcoma)
Outline: as §1

[6] = system: MRK-nu-1 (Breast Carcinoma)
Outline: as §1

[7] = system: NCI-H1648 (Lung Adenocarcinoma)
Outline: as §1

[8] = system: NCI-H1944 (Lung Adenocarcinoma)
Outline: as §1

[9] = system: NCI-H1975 (Lung Adenocarcinoma)
Outline: as §1

[10] = system: NCI-H2023 (Non-Small Cell Lung Carcinoma)
Outline: as §1

[11] = system: NCI-H2170 (Squamous Cell Lung Carcinoma)
Outline: as §1

NCI-H2452 (Mesothelioma) = system: NCI-H2452 (Mesothelioma)
Outline: as §1

[12] = system: NTERA-2-cl-D1 (Other Solid Carcinomas)
Outline: as §1

[13] = system: OCI-M1 (Acute Myeloid Leukemia)
Outline: as §1

[14] = system: OVKATE (Ovarian Carcinoma)
Outline: as §1

[15] = system: SNU-1 (Gastric Carcinoma)
Outline: as §1

[16] = system: SUP-HD1 (Hodgkin's Lymphoma)
Outline: as §1

[17] = system: TOV-21G (Ovarian Carcinoma)
Outline: as §1

SMILES	combination Emax [1]	combination Emax [2]	combination Emax (DK-MG (Glioblastoma))	combination Emax [3]	combination Emax [4]	combination Emax [5]	combination Emax (MG-63 (Osteosarcoma))	combination Emax [6]	combination Emax [7]	combination Emax [8]	combination Emax [9]	combination Emax [10]	combination Emax [11]	combination Emax (NCI-H2452 (Mesothelioma))	combination Emax [12]	combination Emax [13]	combination Emax [14]	combination Emax [15]	combination Emax [16]	combination Emax [17]
CN(C)CCCOc1ccc(-c2ccc3ncc4c(c3c2)n(C2CCOCC2)c(=O)n4C)cn1 [AZD0156] + CCN(CCO)CCCOc1ccc2c(Nc3cc(CC(=O)Nc4cccc(F)c4)[nH]n3)ncnc2c1 [AZD2811] (first compound max 1 µM, 7x7, partner max 1 µM)	0.0605	0.167	0.204	0.0658	0.554	0.208	0.285	0.631	0.214	0.205	0.3	0.252	0.656	0.221	0.469	0.222	0.127	0.434	0.48	0.266
CN(C)CCCOc1ccc(-c2ccc3ncc4c(c3c2)n(C2CCOCC2)c(=O)n4C)cn1 [AZD0156] + C[C@@H]1COCCN1C2=NC(=NC(=C2)C3(CC3)[S@](=N)(=O)C)C4=C5C=CNC5=NC=C4 [AZD6738] (first compound max 1 µM, 7x7, partner max 10 µM)	0.198	0.472	0.242	0.609	0.998	0.342	0.706	0.648	0.676	0.868	0.407	0.836	0.799	0.559	0.595	0.982	0.257	0.769	0.785	0.652
CN(C)CCCOc1ccc(-c2ccc3ncc4c(c3c2)n(C2CCOCC2)c(=O)n4C)cn1 [AZD0156] + O=C(c1cc(Cc2n[nH]c(=O)c3ccccc23)ccc1F)N1CCN(C(=O)C2CC2)CC1 [Olaparib] (first compound max 3 µM, partner max 3 µM)	0.27	0.358	0.41	0.321	0.431	0.198	0.548	0.542	0.396	0.49	0.39	0.369	0.437	0.38	0.162	0.534	0.214	0.182	0.166	0.282
C=CCn1c(=O)c2cnc(Nc3ccc(N4CCN(C)CC4)cc3)nc2n1-c1cccc(C(C)(C)O)n1 [AZD1775] + O=C(c1cc(Cc2n[nH]c(=O)c3ccccc23)ccc1F)N1CCN(C(=O)C2CC2)CC1 [Olaparib] (first compound max 1 µM, partner max 10 µM)	0.237	0.436	0.32	0.339	0.994	0.23	0.548	0.336	0.702	0.41	0.262	0.717	0.58	0.574	0.914	0.869	0.311	0.569	0.871	0.587
CCN(CCO)CCCOc1ccc2c(Nc3cc(CC(=O)Nc4cccc(F)c4)[nH]n3)ncnc2c1 [AZD2811] + C=CCn1c(=O)c2cnc(Nc3ccc(N4CCN(C)CC4)cc3)nc2n1-c1cccc(C(C)(C)O)n1 [AZD1775] (first compound max 1 µM, partner max 1 µM)	0.125	0.331	0.285	0.241	0.995	0.205	0.393	0.373	0.439	0.471	0.364	0.574	0.716	0.574	0.845	0.922	0.233	0.675	0.841	0.591
CCN(CCO)CCCOc1ccc2c(Nc3cc(CC(=O)Nc4cccc(F)c4)[nH]n3)ncnc2c1 [AZD2811] + C[C@@H]1COCCN1C2=NC(=NC(=C2)C3(CC3)[S@](=N)(=O)C)C4=C5C=CNC5=NC=C4 [AZD6738] (first compound max 1 µM, 7x7, partner max 10 µM)	0.239	0.45	0.308	0.694	1	0.384	0.677	0.732	0.633	0.733	0.483	0.818	0.803	0.431	0.784	0.969	0.344	0.73	0.781	0.56
